# Measured values: patent US9115092B2, “Substituted quinazoline and pyrido-pyrimidine derivatives” (Asana Biosciences, LLC, priority 2010, dated 2015)
# Key:
# [1] = tested on: pAKT(T308) (phosphorylated at threonine 308), PC3 cells; assay: In-cell Western assay, pAKT(T308) in PC3 cells; assay type: cell-based; details: Homo sapiens, PC-3, In-cell Western
# Description: Cells from human prostate cancer cell line PC3 (American Type Culture Collection (ATCC), Manassas, Va. 20108 USA) were seeded at an optimal density of 22,000 cell/well in 96-well plates containing Ham's F12K medium (90 μL) and incubated overnight. The compound dilutions were carried out in 100% DMSO followed by a dilution in the medium. Test compounds were added in serial dilutions to the wells and incubated for 2 h. The cells were washed and fixed with 4% paraformaldehyde. After incubation at room temperature for 1 h in the dark, blocking was done for 2 h at room temperature. Primary antibodies for phosphorylated (p) AKT(5473) (phosphorylated at serine 473), pAKT(T308) (phosphorylated at threonine 308) and for pS6RP(S235/236) (phosphorylated at serine 235/236) (commercially available from Cell Signaling Technology®, whose protocol was followed for the in-cell western assay, were diluted to the required concentration and added to the corresponding wells followed by overnight incubation at 4° C. Eu-labeled rabbit (PE) (Perkin-Elmer USA catalog #AD0106) secondary antibody was added and incubated for 2 h at room temperature. Delfia® enhancement solution (cat #1244-105, Perkin Elmer USA) was subsequently added to the plate before taking the reading at 615 nm with excitation wavelength of 340 nm, after which 0.5 μg/mL of Hoechst® 33258 dye (Catalog #86140-5, Sigma) was added to the plate and fluorescence emission was read at 460 nm with 355 nm excitation, to evaluate the correction factor. IC50 values were calculated using a sigmoidal dose-response curve fit in GraphPad Prism® v5 software.
# PI3 kinase isoform β = PI3 kinase isoform β (Homo sapiens, UniProt P42338); assay: PI3 Kinase TR-FRET assay, isoform β; assay type: biochemical; details: read-out: inhibition of PI3 kinase isoform β, IC50
# Chain of PI3 kinase isoform β (P42338 whole entry, the tested form may be a part, canonical isoform): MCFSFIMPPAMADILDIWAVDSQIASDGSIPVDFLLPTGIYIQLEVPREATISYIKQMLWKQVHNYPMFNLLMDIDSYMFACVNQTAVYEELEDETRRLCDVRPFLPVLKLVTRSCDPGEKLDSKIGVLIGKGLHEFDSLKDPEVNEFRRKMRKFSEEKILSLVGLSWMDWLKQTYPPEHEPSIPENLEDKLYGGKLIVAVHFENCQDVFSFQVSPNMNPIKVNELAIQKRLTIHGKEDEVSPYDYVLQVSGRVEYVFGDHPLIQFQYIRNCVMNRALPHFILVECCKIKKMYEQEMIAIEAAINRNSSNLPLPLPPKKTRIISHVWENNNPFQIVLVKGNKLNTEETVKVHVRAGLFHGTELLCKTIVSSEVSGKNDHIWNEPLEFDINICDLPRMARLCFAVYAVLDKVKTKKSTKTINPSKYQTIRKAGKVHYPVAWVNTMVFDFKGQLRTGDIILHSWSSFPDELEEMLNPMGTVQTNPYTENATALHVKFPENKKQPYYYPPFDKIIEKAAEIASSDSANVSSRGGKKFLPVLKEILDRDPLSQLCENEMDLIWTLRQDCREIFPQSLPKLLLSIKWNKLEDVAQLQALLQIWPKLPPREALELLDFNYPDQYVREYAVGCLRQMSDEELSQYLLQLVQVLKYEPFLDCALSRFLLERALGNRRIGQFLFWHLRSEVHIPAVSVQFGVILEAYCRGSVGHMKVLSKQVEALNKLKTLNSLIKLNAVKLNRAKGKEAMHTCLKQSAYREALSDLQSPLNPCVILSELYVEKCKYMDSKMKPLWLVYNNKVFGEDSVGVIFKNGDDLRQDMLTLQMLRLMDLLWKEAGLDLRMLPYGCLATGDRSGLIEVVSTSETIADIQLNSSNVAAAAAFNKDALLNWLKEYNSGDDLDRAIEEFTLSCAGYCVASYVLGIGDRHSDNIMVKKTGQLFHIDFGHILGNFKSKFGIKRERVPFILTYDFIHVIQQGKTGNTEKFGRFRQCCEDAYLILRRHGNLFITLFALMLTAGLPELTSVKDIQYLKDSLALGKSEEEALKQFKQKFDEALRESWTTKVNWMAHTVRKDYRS
# Chain of PI3 kinase isoform β (P27986 whole entry partner, the tested form may be a part, canonical isoform): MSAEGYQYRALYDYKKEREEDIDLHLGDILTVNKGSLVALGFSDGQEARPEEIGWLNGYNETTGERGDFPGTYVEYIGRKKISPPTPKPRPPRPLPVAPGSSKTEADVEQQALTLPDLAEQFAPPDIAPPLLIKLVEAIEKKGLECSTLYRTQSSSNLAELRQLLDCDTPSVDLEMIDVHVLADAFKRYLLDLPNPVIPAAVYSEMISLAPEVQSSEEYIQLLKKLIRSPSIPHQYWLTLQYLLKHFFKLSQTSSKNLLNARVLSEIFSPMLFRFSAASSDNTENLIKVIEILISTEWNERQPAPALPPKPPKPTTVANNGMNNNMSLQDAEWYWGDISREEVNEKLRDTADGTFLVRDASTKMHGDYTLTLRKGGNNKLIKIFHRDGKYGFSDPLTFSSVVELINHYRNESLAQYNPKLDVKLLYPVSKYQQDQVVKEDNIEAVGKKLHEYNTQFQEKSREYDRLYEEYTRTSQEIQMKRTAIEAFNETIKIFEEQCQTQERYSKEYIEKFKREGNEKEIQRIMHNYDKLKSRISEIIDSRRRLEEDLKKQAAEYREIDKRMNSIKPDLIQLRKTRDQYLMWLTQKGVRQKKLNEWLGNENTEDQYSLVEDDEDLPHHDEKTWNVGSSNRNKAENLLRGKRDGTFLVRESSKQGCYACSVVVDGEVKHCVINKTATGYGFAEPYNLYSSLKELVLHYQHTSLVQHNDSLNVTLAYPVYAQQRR
# Description: The ability of compounds of the invention to inhibit PI3K activity was determined in a homogeneous TR-FRET assay using a PI3K assay kit (Millipore, USA; cat #33-016) according to manufacturer's instructions. PI3-Kinases (isoforms α, β, γ and δ) catalyze the phosphorylation of phosphatidylinositol, PIP2 to PIP3 in the presence of ATP and Mg^2+. The PIP3 product is detected by displacement of biotin-PIP3 from an energy transfer complex consisting of Europium labeled anti-GST monoclonal antibody, a GST-tagged PH domain, biotinylated PIP3 and Streptavidin-APC. Excitation of Europium in the complex results in an energy transfer to the APC and a fluorescence emission at 665 nm. The PIP3 product displaces biotin-PIP3 from the complex resulting in a loss of energy transfer and thus a decrease in signal.
# To test for the ability of compounds to inhibit the activity of PI3Kα (wild-type), exemplary compounds of formula (I) were dissolved in DMSO and directly distributed into 384-well plates at a volume of 0.5 μL. 14.5 μL of P110/P85α/PIP2 mixture in buffer (obtained from the Millipore kit) containing MgCl2 (40 mM) and DTT (5 mM) was added to compound wells and incubated for 60 min at room temperature. P110/P85α was expressed in SF9 insect cells and purified nickel column extraction. Five ng of wild-type P110/P85α was used in the assay. The kinase reaction was started by the addition of ATP. The assay concentrations of both PIP2 and ATP were 10 μM. The reaction mixture was incubated for 30 min at room temperature and was terminated by the addition of stop mix and detection mix. Fluorescence was measured at 615 and 665 nm upon excitation at 340 nm in a Victor™ V5 fluorometer (Perkin Elmer, USA). The fluorescence emission ratio at 665 to 615 nm, proportional to the kinase activity, was plotted against the compound concentration to generate dose-response curves and IC50 values were determined using GraphPad Prism® 5 software.
# The activity of PI3 kinase isoforms β, γ and δ were assayed in a similar manner to the assay protocol described above for PI3Kα, by substituting the appropriate p110/p85 isoform for the p110α/p85α. Compounds of formula (I) caused inhibition of PI3 kinase isoforms β, γ and δ as determined by these assays. For example, the compounds of examples 3, 51, 54, 111, 113, 115, and 253 each caused inhibition of PI3 kinase isoform β with IC50 values <50 nM. The compounds of examples 104, 133, 146 and 152 each caused inhibition of PI3 kinase isoform β with IC50 values <500 nM. The compounds of examples 3, 51, 54, 104, 111, 113, 115, 133, 253, and 152 each caused inhibition of PI3 kinase isoform γ with IC50 values <500 nM. […] The compounds of examples 2, 3, 51, 54, 111, 113, and 253 each caused inhibition of PI3 kinase isoform […] with IC50 values >1 μM.
# [2] = tested on: pS6RP(S235/236), PC3 cells; assay: In-cell Western assay, pS6RP(S235/236) in PC3 cells; assay type: cell-based, human
# Procedure, shortened: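 Overnight-seeded PC3 cells were treated 2 h with serially diluted compound, then fixed and immunostained with phospho-specific primary antibodies and Eu-labelled secondary. Time-resolved Eu signal read at 615 nm (ex 340 nm), normalised by Hoechst 33258 staining (ex 355/em 460 nm); IC50 from sigmoidal dose-response fit.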
# [3] = Homo sapiens, PC-3, In-cell Western
IC50 [1] [µM],IC50 (PI3 kinase isoform β) [µM],"IC50 [2, 3] [µM]",IC50 ([2]; In-cell Western) [µM],SMILES
< 0.1,< 0.5,,,"CN(C)C(=O)c1ccc(NC(=O)Nc2ccc(-c3nc(N4CCOCC4)c4ccc(-c5cccnc5)cc4n3)cc2)c(F)c1 [Example 152, 3-fluoro-N,N-dimethyl-4-(3-(4-(4-morpholino-7-(pyridin-3-yl)quinazolin-2-yl)phenyl)ureido)-benzamide]"
< 0.1,< 0.5,,,"CN(C)C(=O)c1ccc(NC(=O)Nc2ccc(-c3nc(N4CCOCC4)c4ccc(-c5cccnc5F)cc4n3)cc2)c(F)c1 [Example 146, 3-fluoro-4-(3-(4-(7-(2-fluoropyridin-3-yl)-4-morpholino-quinazolin-2-yl)phenyl)ureido)-N,N-dimethyl-benzamide]"

# Second part, the molecule before the results:
SMILES,IC50 [1] [µM],IC50 (PI3 kinase isoform β) [µM],"IC50 [2, 3] [µM]",IC50 ([2]; In-cell Western) [µM]
"CN(C)C(=O)c1ccc(NC(=O)Nc2ccc(-c3nc(N4CCOCC4)c4ccc(-c5cncnc5)cc4n3)cc2)cc1 [Example 1, N,N-Dimethyl-4-(3-{4-[4-morpholin-4-yl-7-pyrimidin-5-yl-quinazolin-2-yl)-phenyl]-ureido}-benzamide]",0.501 to 5,,< 0.1,
"CN(C)C(=O)c1ccc(NC(=O)Nc2ccc(-c3nc(N4CCOCC4)c4ccc(-c5cncnc5)cc4n3)cc2)c(F)c1 [Example 133, 3-fluoro-N,N-dimethyl-4-(3-(4-(4-morpholino-7-(pyrimidin-5-yl)quinazolin-2-yl)phenyl)ureido)-benzamide]",< 0.1,< 0.5,0.201 to 10,
"CN(C)C(=O)c1ccc(NC(=O)Nc2ccc(-c3nc(N4CCOCC4)c4ccc(-c5ccco5)cc4n3)cc2)cc1 [Example 51, 4-{3-[4-(7-furan-2-yl-4-morpholin-4-yl-quinazolin-2-yl)-phenyl]-ureido}-N,N-dimethyl-benzamide]",,,,0.501 to 5
"Cc1ccc(-c2ccc3c(N4CCOCC4)nc(-c4ccc(NC(=O)Nc5ccc(C(=O)N(C)C)cc5)cc4)nc3c2)o1 [Example 2, N,N-Dimethyl-4-(3-{4-[7-(5-methyl-furan-2-yl)-4-morpholin-4-yl-quinazolin-2-yl]-phenyl}-ureido)-benzamide]",0.1 to 0.5,< 1,0.1 to 0.5,
